Measured values taken from US20050043247A1, “Spray-dried amorphous BIBN 4096, process for preparing and the use thereof as inhalative” (Boehringer Ingelheim International GmbH, priority 2003, published 2005).

Key:
[1] = Bioavailability after administration by inhalation as powder inhalant; conditions: in vivo, inhaled or intranasal; administered by inhalation as powder inhalant; based on the fine content of the formulation (FPD, fine particle dose, USP 24 Suppl. 2000)
[2] = Determining the particle size by laser diffraction (Frauenhofer diffraction); type: physicochemical
Source text: a) Determining the Particle Size by Laser Diffraction (Frauenhofer Diffraction):
Measuring method: In order to determine the particle size the powder is fed into a laser diffraction spectrometer using a dispersing unit. The median value X50 refers to the particle size below which 50% of the quantity of particles fall. The Q(5.8) value describes the percentage of particles which are less than 5.8 μm in size.
Measuring device: Laser diffraction spectrometer (HELOS), Messrs. Sympatec
Dispersing unit: RODOS/dispersing pressure: 3 bar
Focal length: 100 mm [measuring range: 0.9 . . . 175 μm]
Evaluation method: HRLD (V 4)

[3] = Determining the specific surface area (multi point BET, nitrogen); type: physicochemical; conditions: spray-dried microparticles from ethanol solution; 16 point BET
Experimental: b) Determining the Specific Surface Area:
Measuring method: The specific surface is determined by exposing the powder sample to a nitrogen atmosphere at different pressures. Cooling the sample causes the nitrogen molecules to be condensed on the surface of the particles. The quantity of condensed nitrogen is determined by means of the drop in pressure in the system and the surface of the sample is calculated by means of the surface nitrogen requirement and the weight of the sample.
Measuring device: Tri Star Multi Point BET, Messrs. Micromeritics
Heating station: VacPrep 061, Messrs. Micromeritics
Heating: approx. 12 h /40° C.

[4] = Stability of the amorphous state; type: physicochemical; conditions: normal conditions (T<50° C., relative humidity<75%); microparticles
[5] = conventional formulations; cited from earlier work

bioavailability [1]: ~60%
Particle size X50 ([2]; spray-dried microparticles from 0.5 g (A) in 100 mL ethanol, median particle size, RODOS dispersing pressure 3 bar): 1.2 μm
Particle size Q(5.8) ([2]; spray-dried microparticles from ethanol solution, percentage of particles less than 5.8 μm in size): 99.5%
Specific surface area Sm [3]: 21.5 m^2/g
stability in the amorphous state [4]: stable in the amorphous state
Compound: NCCCC[C@H](NC(=O)[C@@H](Cc1cc(Br)c(O)c(Br)c1)NC(=O)N1CCC(N2Cc3ccccc3NC2=O)CC1)C(=O)N1CCN(c2ccncc2)CC1 [A, 1-[N^2-[3,5-dibromo-N-[[4-(3,4-dihydro-2(1H)-oxoquinazolin-3-yl)-1-piperidinyl]carbonyl]-D-tyrosyl]-L-lysyl]-4-(4-pyridinyl)-piperazine]
oral bioavailability [5]: very limited oral bioavailability
